From US5750530A, “Pharmaceutical diketopiperazine compounds” (Xenova Limited, priority 1994, dated 1998)
Counter-ions that a name gives are not always drawn.

Target: PAI-1 (Homo sapiens, UniProt P05121)
Experiment: biochemical
Type: biochemical
Conditions: for IC50: PAI chromogenic substrate assay
Method in brief: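 Compound preincubated with PAI-1 before addition to a tPA system; residual tPA converts plasminogen to plasmin, which cleaves chromogenic substrate S2251. Released p-nitroaniline read at 405 nm; values given as % inhibition at set concentrations or IC50.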

Chain of PAI-1 (P05121 24-402): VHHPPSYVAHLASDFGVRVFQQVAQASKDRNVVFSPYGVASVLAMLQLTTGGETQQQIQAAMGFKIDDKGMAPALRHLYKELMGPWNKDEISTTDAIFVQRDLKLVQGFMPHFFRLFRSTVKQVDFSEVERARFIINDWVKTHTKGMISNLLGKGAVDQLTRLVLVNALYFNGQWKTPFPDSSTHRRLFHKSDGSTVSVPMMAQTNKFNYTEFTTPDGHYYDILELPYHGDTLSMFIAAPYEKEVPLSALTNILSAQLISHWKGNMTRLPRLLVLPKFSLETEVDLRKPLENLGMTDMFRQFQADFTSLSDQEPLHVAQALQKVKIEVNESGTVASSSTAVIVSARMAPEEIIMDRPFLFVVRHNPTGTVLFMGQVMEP

Row | % Inhibition (5 μm) | % Inhibition (20 μm) | IC50 | SMILES
1 | 10% | 54% | 20 µM | CN(C)CCSc1ccc(/C=c2\[nH]c(=O)/c(=C/c3cn(C)c4ccccc34)[nH]c2=O)s1 [Compound 5473.HCl, (3Z,6Z)-6-(5-(2-Dimethylaminoethylthio)-2-thienyl)methylene-3-(1-methyl-3-indolyl)methylene-2,5-piperazinedione]
2 | 21% | 38% | – | CN(C)CCSc1ccc(/C=c2\[nH]c(=O)/c(=C/c3cccc(C#N)c3)[nH]c2=O)cc1 [Compound 5476, (3Z,6Z)-3-(3-Cyanobenzylidene)-6-(4-(2-dimethylaminoethylthio)benzylidene)-2,5-piperazinedione]
3 | 11% | 34% | – | CN(C)CCSc1ccc(/C=c2\[nH]c(=O)/c(=C/c3cccc(C#N)c3)[nH]c2=O)cc1 [Compound 5476.HCl, (3Z,6Z)-3-(3-Cyanobenzylidene)-6-(4-(2-dimethylaminoethylthio)benzylidene)-2,5-piperazinedione]
4 | 10% | 59% | 20 µM | COC(=O)c1ccc(/C=c2\[nH]c(=O)/c(=C/c3ccc(SCCN(C)C)s3)[nH]c2=O)cc1 [Compound 5477, (3Z,6Z)-3-(5-(2-Dimethylaminoethylthio)-2-thienyl)methylene-6-(4-methoxycarbonylbenzylidene)-2,5-piperazinedione]
5 | 19% | 69% | 15.4 µM | COC(=O)c1ccc(/C=c2\[nH]c(=O)/c(=C/c3ccc(SCCN(C)C)s3)[nH]c2=O)cc1 [Compound 5477.HCl, (3Z,6Z)-3-(5-(2-Dimethylaminoethylthio)-2-thienyl)methylene-6-(4-methoxycarbonylbenzylidene)-2,5-piperazinedione]
6 | 3% | 60% | 16.9 µM | COC(=O)c1ccc(/C=c2\[nH]c(=O)/c(=C/c3ccc(SCCN(C)C)cc3)[nH]c2=O)cc1 [Compound 5478.HCl, (3Z,6Z)-3-(4-(2-Dimethylaminoethylthio)benzylidene)-6-(4-methoxycarbonylbenzylidene)-2,5-piperazinedione]
7 | 66% | 70% | 4.3 µM | COc1ccc(/C=c2\[nH]c(=O)/c(=C/c3ccc(SCCN(C)C)cc3)[nH]c2=O)cc1 [Compound 5479, (3Z,6Z)-3-(4-(2-Dimethylaminoethylthio)benzylidene)-6-(4-methoxybenzylidene)-2,5-piperazinedione]
8 | 62% | 75% | 4.8 µM | COc1ccc(/C=c2\[nH]c(=O)/c(=C/c3ccc(SCCN(C)C)cc3)[nH]c2=O)cc1 [Compound 5479.HCl, (3Z,6Z)-3-(4-(2-Dimethylaminoethylthio)benzylidene)-6-(4-methoxybenzylidene)-2,5-piperazinedione]
9 | 53% | 74% | 5.2 µM | CN(C)CCSc1ccc(/C=c2\[nH]c(=O)/c(=C/c3ccc(Br)cc3)[nH]c2=O)cc1 [Compound 5480, (3Z,6Z)-3-(4-Bromobenzylidene)-6-(4-(2-dimethylaminoethylthio)benzylidene)-2,5-piperazinedione]
10 | 52% | 76% | – | CN(C)CCSc1ccc(/C=c2\[nH]c(=O)/c(=C/c3ccc(Br)cc3)[nH]c2=O)cc1 [Compound 5480.HCl, (3Z,6Z)-3-(4-Bromobenzylidene)-6-(4-(2-dimethylaminoethylthio)benzylidene)-2,5-piperazinedione]
11 | 9% | 56% | 20 µM | CN(C)CCSc1ccc(/C=c2\[nH]c(=O)/c(=C/c3ccc(OCc4ccccc4)cc3)[nH]c2=O)cc1 [Compound 5481, (3Z,6Z)-3-(4-Benzyloxybenzylidene)-6-(4-(2-dimethylaminoethylthio)benzylidene)-2,5-piperazinedione]
12 | 10% | 55% | – | CN(C)CCSc1ccc(/C=c2\[nH]c(=O)/c(=C/c3ccc(OCc4ccccc4)cc3)[nH]c2=O)cc1 [Compound 5481.HCl, (3Z,6Z)-3-(4-Benzyloxybenzylidene)-6-(4-(2-dimethylaminoethylthio)benzylidene)-2,5-piperazinedione]
13 | 12% | 50% | 20 µM | CN(C)CCSc1ccc(/C=c2\[nH]c(=O)/c(=C/c3ccc(OCc4ccccc4)cc3)[nH]c2=O)s1 [Compound 5482, (3Z,6Z)-6-(4-Benzyloxybenzylidene)-3-(5-(2-dimethylaminoethylthio)-2-thienyl)methylene-2,5-piperazinedione]
14 | 13% | 59% | – | CN(C)CCSc1ccc(/C=c2\[nH]c(=O)/c(=C/c3ccc(OCc4ccccc4)cc3)[nH]c2=O)s1 [Compound 5482.HCl, (3Z,6Z)-6-(4-Benzyloxybenzylidene)-3-(5-(2-dimethylaminoethylthio)-2-thienyl)methylene-2,5-piperazinedione]
15 | 13% | 55% | 20 µM | CN(C)CCSc1ccc(/C=c2\[nH]c(=O)/c(=C/c3cccc(OCc4ccccc4)c3)[nH]c2=O)cc1 [Compound 5486, (3Z,6Z)-3-(3-Benzyloxybenzylidene)-6-(4-(2-dimethylaminoethylthio)benzylidene)-2,5-piperazinedione]
16 | 4% | 49% | – | CN(C)CCSc1ccc(/C=c2\[nH]c(=O)/c(=C/c3cccc(OCc4ccccc4)c3)[nH]c2=O)cc1 [Compound 5486.HCl, (3Z,6Z)-3-(3-Benzyloxybenzylidene)-6-(4-(2-dimethylaminoethylthio)benzylidene)-2,5-piperazinedione]
17 | 15% | 60% | 8.6 µM | CN(C)CCSc1ccc(/C=c2\[nH]c(=O)/c(=C/c3cccc(OCc4ccccc4)c3)[nH]c2=O)s1 [Compound 5487, (3Z,6Z)-6-(3-Benzyloxybenzylidene)-3-(5-(2-dimethylaminoethylthio)-2-thienyl)methylene-2,5-piperazinedione]
18 | 7% | 54% | 7.2 µM | CN(C)CCSc1ccc(/C=c2\[nH]c(=O)/c(=C/c3cccc(OCc4ccccc4)c3)[nH]c2=O)s1 [Compound 5487.HCl, (3Z,6Z)-6-(3-Benzyloxybenzylidene)-3-(5-(2-dimethylaminoethylthio)-2-thienyl)methylene-2,5-piperazinedione]
19 | 14% | 64% | 8.2 µM | COc1cc(/C=c2\[nH]c(=O)/c(=C/c3ccc(SCCN(C)C)s3)[nH]c2=O)ccc1OCc1ccc([N+](=O)[O-])cc1 [Compound 5488, (3Z,6Z)-3-(5-(2-Dimethylaminoethylthio)-2-thienyl)methylene-6-(3-methoxy-4-(4-nitrobenzyloxy)benzylidene)-2,5-piperazinedione]
20 | 15% | 60% | 7.6 µM | COc1cc(/C=c2\[nH]c(=O)/c(=C/c3ccc(SCCN(C)C)s3)[nH]c2=O)ccc1OCc1ccc([N+](=O)[O-])cc1 [Compound 5488.HCl, (3Z,6Z)-3-(5-(2-Dimethylaminoethylthio)-2-thienyl)methylene-6-(3-methoxy-4-(4-nitrobenzyloxy)benzylidene)-2,5-piperazinedione]
21 | 6% | 56% | 13.6 µM | CN(C)CCSc1ccc(/C=c2\[nH]c(=O)/c(=C/c3ccc(Br)cc3)[nH]c2=O)s1 [Compound 5489, (3Z,6Z)-6-(4-Bromobenzylidene)-3-(5-(2-dimethylaminoethylthio)-2-thienyl)methylene-2,5-piperazinedione]
22 | 9% | 55% | 12.6 µM | CN(C)CCSc1ccc(/C=c2\[nH]c(=O)/c(=C/c3ccc(Br)cc3)[nH]c2=O)s1 [Compound 5489.HCl, (3Z,6Z)-6-(4-Bromobenzylidene)-3-(5-(2-dimethylaminoethylthio)-2-thienyl)methylene-2,5-piperazinedione]
23 | 6% | 48% | 20 µM | COc1cc(/C=c2\[nH]c(=O)/c(=C/c3ccc(SCCN(C)C)cc3)[nH]c2=O)ccc1OCc1ccc([N+](=O)[O-])cc1 [Compound 5490, (3Z,6Z)-6-(4-(2-Dimethylaminoethylthio)benzylidene)-3-(3-methoxy-4-(4-nitrobenzyloxy)benzylidene)-2,5-piperazinedione]
24 | 12% | 66% | 10.8 µM | COc1cc(/C=c2\[nH]c(=O)/c(=C/c3ccc(SCCN(C)C)cc3)[nH]c2=O)ccc1OCc1ccc([N+](=O)[O-])cc1 [Compound 5490.HCl, (3Z,6Z)-6-(4-(2-Dimethylaminoethylthio)benzylidene)-3-(3-methoxy-4-(4-nitrobenzyloxy)benzylidene)-2,5-piperazinedione]
25 | 0% | 65% | 14.2 µM | CN(C)CCSc1ccc(/C=c2\[nH]c(=O)/c(=C/c3ccc4c(c3)OCO4)[nH]c2=O)cc1 [Compound 5491, (3Z,6Z)-6-(4-(2-Dimethylaminoethylthio)benzylidene)-3-(3,4-methylenedioxybenzylidene)-2,5-piperazinedione]
26 | 0% | 47% | 20 µM | CN(C)CCSc1ccc(/C=c2\[nH]c(=O)/c(=C/c3ccc4c(c3)OCO4)[nH]c2=O)cc1 [Compound 5491.HCl, (3Z,6Z)-6-(4-(2-Dimethylaminoethylthio)benzylidene)-3-(3,4-methylenedioxybenzylidene)-2,5-piperazinedione]
27 | 17% | 72% | 11 µM | CN(C)CCSc1ccc(/C=c2\[nH]c(=O)/c(=C/c3cn(C)c4ccccc34)[nH]c2=O)cc1 [Compound 5497, (3Z,6Z)-6-(4-(2-Dimethylaminoethylthio)benzylidene)-3-(1-methyl-3-indolyl)methylene-2,5-piperazinedione]
